Data as given in the supplement of paper PMC10307832.

Legend:
Test in all cases: relative viability (nuclei count vs DMSO), 5 days (fraction); higher = more cells survive
Idelalisib = compound: CC[C@H](Nc1ncnc2[nH]cnc12)c1nc2cccc(F)c2c(=O)n1-c1ccccc1 [Idelalisib]
Summary of the method: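 On vehicle-anchored 1536-well plates, lung cancer cell lines held overnight at 37 °C were pinned with five library-drug doses (not always all listed) spaced by √10. With no medium change over 5 days, they were then fixed, permeabilised and Hoechst-stained in one step and imaged at 4×. MetaXpress counted nuclei, and viability is the median across plates of treated-well over vehicle-well nuclei. Acceptance needed control CV below 25% and at least one doubling.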

Idelalisib + Phenformin = compound: CC[C@H](Nc1ncnc2[nH]cnc12)c1nc2cccc(F)c2c(=O)n1-c1ccccc1 [Idelalisib] + N=C(N)NC(=N)NCCc1ccccc1 [Phenformin] (partner 250 µM)
Summary of the method: (§1)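 Lung cancer cell lines in 1536-well plates got either a single drug or a fixed anchor-drug dose together with five library-drug doses (not always all listed) in √10 steps, by pin tool, on the day after seeding. Nuclei were counted after 5 days, and relative viability is the treated-to-vehicle ratio of nuclei counts. Values are medians of duplicate plates.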

Idelalisib + Foretinib = compound: CC[C@H](Nc1ncnc2[nH]cnc12)c1nc2cccc(F)c2c(=O)n1-c1ccccc1 [Idelalisib] + COc1cc2c(Oc3ccc(NC(=O)C4(C(=O)Nc5ccc(F)cc5)CC4)cc3F)ccnc2cc1OCCCN1CCOCC1 [Foretinib] (partner 0.25 µM)
Summary of the method: as §1

Pemetrexed + Dasatinib = compound: Nc1nc2[nH]cc(CCc3ccc(C(=O)N[C@@H](CCC(=O)O)C(=O)O)cc3)c2c(=O)[nH]1 [Pemetrexed] + Cc1nc(Nc2ncc(C(=O)Nc3c(C)cccc3Cl)s2)cc(N2CCN(CCO)CC2)n1 [Dasatinib] (partner 0.075 µM)
Summary of the method: as §1

| Cell Line | relative viability (Idelalisib; 0.04 µM) | relative viability (Idelalisib; 0.1265 µM) | relative viability (Idelalisib; 0.4 µM) | relative viability (Idelalisib; 1.265 µM) | relative viability (Idelalisib; 4 µM) | relative viability (Idelalisib + Phenformin; first compound 0.04 µM) | relative viability (Idelalisib + Phenformin; first compound 0.1265 µM) | relative viability (Idelalisib + Phenformin; first compound 0.4 µM) | relative viability (Idelalisib + Phenformin; first compound 1.265 µM) | relative viability (Idelalisib + Phenformin; first compound 4 µM) | relative viability (Idelalisib + Foretinib; first compound 0.04 µM) | relative viability (Idelalisib + Foretinib; first compound 0.1265 µM) | relative viability (Idelalisib + Foretinib; first compound 0.4 µM) | relative viability (Idelalisib + Foretinib; first compound 1.265 µM) | relative viability (Idelalisib + Foretinib; first compound 4 µM) | relative viability (Pemetrexed + Dasatinib; first compound 0.002 µM) | relative viability (Pemetrexed + Dasatinib; first compound 0.006325 µM) | relative viability (Pemetrexed + Dasatinib; first compound 0.02 µM) | relative viability (Pemetrexed + Dasatinib; first compound 0.06325 µM) | relative viability (Pemetrexed + Dasatinib; first compound 0.2 µM) |
| --- | --- | --- | --- | --- | --- | --- | --- | --- | --- | --- | --- | --- | --- | --- | --- | --- | --- | --- | --- | --- |
| HCC-44 | 1.04 | 0.953 | 0.98 | 1.08 | 1.13 | 0.201 | 0.229 | 0.177 | 0.235 | 0.153 | – | – | – | – | – | – | – | – | – | – |
| HCC-78 | 1.05 | 0.923 | 0.811 | 1.01 | 0.729 | 0.945 | 0.647 | 0.582 | 0.751 | 0.674 | 0.612 | 0.594 | 0.462 | 0.528 | 0.434 | 0.305 | 0.453 | 0.363 | 0.241 | 0.246 |
| HCC-366 | 1.06 | 0.993 | 0.986 | 0.987 | 0.966 | 0.597 | 0.639 | 0.619 | 0.632 | 0.679 | 0.947 | 0.867 | 0.889 | 0.971 | 0.938 | 0.574 | 0.613 | 0.683 | 0.71 | 0.527 |
| HCC-827 | 1.08 | 1.05 | 1.01 | 1.08 | 0.952 | 0.424 | 0.393 | 0.37 | 0.352 | 0.323 | 1.1 | 0.971 | 1.04 | 1.05 | 0.915 | 0.369 | 0.287 | 0.349 | 0.362 | 0.339 |
| HOP-62 | 1.07 | 0.998 | 0.936 | 1.14 | 0.963 | 0.558 | 0.656 | 0.589 | 0.672 | 0.654 | 1.15 | 1.05 | 1.15 | 1.15 | 1.1 | 0.522 | 0.636 | 0.659 | 0.674 | 0.629 |
| IA-LM | 0.975 | 1.05 | 1.02 | 1.23 | 0.955 | – | – | – | – | – | 1.17 | 1.41 | 1.24 | 1.31 | 1.19 | – | – | – | – | – |
| LC-2-ad | 1.05 | 1 | 0.962 | 1.12 | 0.93 | 0.602 | 0.592 | 0.462 | 0.626 | 0.546 | 0.978 | 0.857 | 0.733 | 0.943 | 0.85 | 0.454 | 0.525 | 0.347 | 0.208 | 0.222 |
| LCLC-97TM1 | 1.17 | 0.92 | 0.777 | 1.09 | 0.911 | 0.43 | 0.434 | 0.267 | 0.592 | 0.453 | 1.1 | 0.961 | 0.877 | 1.03 | 0.776 | 0.743 | 0.892 | 0.967 | 0.797 | 0.588 |
| LCLC-103H | 1.12 | 0.979 | 0.822 | 1.09 | 0.91 | 0.367 | 0.312 | 0.275 | 0.33 | 0.314 | 0.727 | 0.728 | 0.65 | 0.829 | 0.582 | 0.43 | 0.508 | 0.55 | 0.436 | 0.489 |
| LK-2 | 1.22 | 1 | – | 1.06 | 0.87 | 0.477 | 0.407 | – | 0.536 | 0.384 | 1.75 | 1.16 | – | 1.29 | 0.836 | 0.289 | 0.198 | 0.318 | 0.341 | 0.254 |
| LOU-NH91 | 1.07 | 0.882 | 0.878 | 0.762 | 0.932 | 0.712 | 0.725 | 0.573 | 0.492 | 0.643 | 1.03 | 0.912 | 0.888 | 0.803 | 0.864 | 0.495 | 0.576 | 0.599 | 0.457 | 0.345 |
| LU99A | 1.08 | 1.08 | 0.814 | 1.14 | 1.05 | 1.06 | 0.836 | 0.737 | 0.988 | 1.01 | 0.939 | 0.847 | 0.775 | 0.79 | 0.775 | 0.504 | 0.441 | 0.459 | 0.516 | 0.542 |
| LXF-289 | 1.05 | 1.07 | 1 | 1.07 | 1.04 | 0.506 | 0.518 | 0.46 | 0.534 | 0.496 | 0.946 | 0.979 | 0.928 | 1.14 | 0.951 | 0.175 | 0.192 | 0.239 | 0.281 | 0.217 |
| NCI-H23 | 1.15 | 1.07 | 0.69 | 0.713 | 1 | 0.713 | 0.845 | 0.792 | – | 0.776 | 1.2 | 1.1 | 0.766 | – | 0.859 | 0.783 | 0.762 | 0.933 | 0.74 | 0.781 |
| NCI-H522 | 1.13 | 0.865 | 0.916 | 0.997 | 0.974 | 0.675 | 0.66 | 0.641 | 0.761 | 0.634 | – | – | – | – | – | 0.881 | 0.822 | 0.967 | 0.848 | 0.933 |
| NCI-H1299 | 1.02 | 1.07 | 1.03 | 1.04 | 1 | – | – | – | – | – | 1.14 | 1.16 | 1.11 | 1.16 | 1.2 | – | – | – | – | – |
| NCI-H1648 | 0.963 | 0.918 | 0.697 | 0.849 | 0.661 | – | – | – | – | – | – | – | – | – | – | – | – | – | – | – |
| NCI-H1703 | 0.916 | 1.07 | 0.809 | 0.832 | 0.509 | – | – | – | – | – | 0.344 | 0.356 | 0.311 | 0.399 | 0.303 | – | – | – | – | – |
| NCI-H1792 | 1.08 | 0.942 | 0.653 | 1.09 | 0.85 | 0.335 | 0.182 | – | 0.225 | 0.208 | – | – | – | – | – | 0.782 | 0.789 | 0.938 | 0.747 | 0.81 |
